# Reference: patent publication US8697684B2, “Azetidinyl diamides as monoacylglycerol lipase inhibitors” (Janssen Pharmaceutica NV, priority 2009, dated 2014)
# Tested on: rat
# Test: CFA-Induced Paw Radiant Heat Hypersensitivity
# Type: in vivo
# Details: CFA thermal hypersensitivity, 30 mg/kg p.o., HPβCD, group mean values, last time point 180 or 300 min
# Description: Each rat was placed in a test chamber on a warm glass surface and allowed to acclimate for approximately 10 min. A radiant thermal stimulus (beam of light) was then focused through the glass onto the plantar surface of each hind paw in turn. The thermal stimulus was automatically shut off by a photoelectric relay when the paw was moved or when the cut-off time was reached (20 sec for radiant heat at ˜5 amps). An initial (baseline) response latency to the thermal stimulus was recorded for each animal prior to the injection of complete Freund's adjuvant (CFA). 24 h following intraplantar CFA injection, the response latency of the animal to the thermal stimulus was then re-evaluated and compared to the animal's baseline response time. […] Post-compound treatment withdrawal latencies were assessed at fixed time intervals, typically 30, 60, 120, 180, and 300 min.
# The percent reversal (% R) of hypersensitivity was calculated in one of two different ways: 1) using group mean values or 2) using individual animal values. […]
# Method 1. For all compounds, the % R of hypersensitivity was calculated using the mean value for groups of animals at each time point according to the following formula: % reversal=[(group treatment response−group CFA response)/(group baseline response−group CFA response)]×100 Results are given for the maximum % reversal observed for each compound at any time point tested. […]
smiles,measurement,value
O=C(c1ccc(-c2cccc(C(F)(F)F)c2)c(Cl)c1)N1CC(N2CCN(C(=O)c3cscn3)CC2)C1 [Cpd 1102],Method 1: peak % reversal,38%
